Assay results as given in patent publication US4906659A, “Antibiotic tan-749, its derivatives, production and use thereof” (Takeda Chemical Industries, Ltd., priority 1985, dated 1990).
Converted amounts (≈) assume the structure as drawn. Where a name gives a salt, the structure may show the parent alone. Values belong to the molecule of their own block, whether it stands above or below them.

Experiments:
[1] = system: S. aureus 308A-1; assay: Antibacterial activity against gram-positive bacteria, MIC (Table 3); type: cell-based; settings: Staphylococcus aureus, 308A1; Tripticase Soy Agar; inoculum size 10^8 cfu/ml
Excerpt: The antibacterial activities against gram-positive bacteria (S. aureus 308A-1) of some compounds of the invention are as shown in Table 3.
*Medium: Tripticase Soy Agar Inoculum size: 10^8 cfu/ml

[2] = system: S. aureus 308A-1; assay: Antibacterial activity in mice, ED50 (Table 3); type: in vivo; settings: Staphylococcus aureus, 308A1, sc, S.C.
Excerpt: The antibacterial activities against gram-positive bacteria (S. aureus […]-1) of some compounds of the invention are as shown in Table 3. | **mice, S.C.,

[3] = system: Staphylococcus aureus 308A-1; assay: Therapeutic effect on infectious disease in mice (Table G); type: in vivo; settings: bacteria infected intraperitoneally
[4] = system: Klebsiella pneumoniae IFO 3317; assay: Antibacterial spectrum, minimal inhibitory concentration (Table D); type: cell-based; settings: IFO3317, dihydrochloride, Bacto-Antibiotic Medium 3 agar, inoculum a loopful of approx. 10^6 CFU/ml
Experimental: (§1) Tables D and E show the antibacterial spectra of TAN-749A, B, C and D (dihydrochlorides) against various microorganisms.
(§2) Bacto-Antibiotic Medium 3
(§3) Distilled water 1,000 ml
(§4) Inoculum size a loopful of approx.

[5] = system: Proteus morganii IFO 3168; assay: as above; type: cell-based; settings: Morganella morganii, IFO3168; dihydrochloride; Bacto-Antibiotic Medium 3 agar; inoculum a loopful of approx. 10^6 CFU/ml
Experimental: as §1, §2, §3, §4

[6] = system: Alcaligenes faecalis IFO 13111; assay: as above; type: cell-based; settings: IFO13111, dihydrochloride, Bacto-Antibiotic Medium 3 agar, inoculum a loopful of approx. 10^6 CFU/ml
Experimental: as §1, §2, §3, §4

[7] = system: Pseudomonas aeruginosa IFO 3080; assay: as above; type: cell-based; settings: IFO3080, dihydrochloride, Bacto-Antibiotic Medium 3 agar, inoculum a loopful of approx. 10^6 CFU/ml
Experimental: as §1, §2, §3, §4

[8] = system: Acinetobacter calcoaceticus IFO 13006; assay: as above; type: cell-based; settings: IFO13006, dihydrochloride, Bacto-Antibiotic Medium 3 agar, inoculum a loopful of approx. 10^6 CFU/ml
Experimental: as §1, §2, §3, §4

[9] = system: Citrobacter freundii IFO 12681; assay: as above; type: cell-based; settings: IFO12681, dihydrochloride, Bacto-Antibiotic Medium 3 agar, inoculum a loopful of approx. 10^6 CFU/ml
Experimental: as §1, §2, §3, §4

[10] = system: Staphylococcus aureus FDA 209P; assay: as above; type: cell-based; settings: FDA209P, dihydrochloride, Bacto-Antibiotic Medium 3 agar, inoculum a loopful of approx. 10^6 CFU/ml
Experimental: as §1, §2, §3, §4

[11] = system: Proteus vulgaris IFO 3988; assay: as above; type: cell-based; settings: IFO3988, dihydrochloride, Bacto-Antibiotic Medium 3 agar, inoculum a loopful of approx. 10^6 CFU/ml
Experimental: as §1, §2, §3, §4

[12] = system: Escherichia coli NIHJ JC2; assay: as above; type: cell-based; settings: NIHJJC2, dihydrochloride, Bacto-Antibiotic Medium 3 agar, inoculum a loopful of approx. 10^6 CFU/ml
Experimental: as §1, §2, §3, §4

[13] = system: Escherichia coli T7; assay: Antibacterial spectrum, minimal inhibitory concentration, agar dilution (Table E); type: cell-based; settings: dihydrochloride, medium TSA, inoculum a loopful of 10^8 CFU/ml
Excerpt: as §1
(§5) (Note 1) Determined by the agar dilution method. Inoculum size was a
(§6) loopful of 10^8 CFU/ml.
(§7) (Note 2) TSA (Tripticase Soy Agar; Baltimore Biological Laboratories,
(§8) USA), B--TSA; 10% horse serum/TSA

[14] = system: Streptococcus pyogenes E-14; assay: as above; type: cell-based; settings: E14, dihydrochloride, medium B--TSA (10% horse serum/TSA), inoculum a loopful of 10^8 CFU/ml
Excerpt: as §1, §5, §6, §7, §8

[15] = system: Staphylococcus aureus 308A-1; assay: as above; type: cell-based; settings: 308A1, dihydrochloride, medium TSA, inoculum a loopful of 10^8 CFU/ml
Excerpt: as §1, §5, §6, §7, §8

[16] = system: Pseudomonas aeruginosa P9; assay: as above; type: cell-based; settings: dihydrochloride, medium B--TSA (10% horse serum/TSA), inoculum a loopful of 10^8 CFU/ml
Excerpt: as §1, §5, §6, §7, §8

[17] = system: Staphylococcus aureus FDA209P; assay: as above; type: cell-based; settings: dihydrochloride, medium B--TSA (10% horse serum/TSA), inoculum a loopful of 10^8 CFU/ml
Excerpt: as §1, §5, §6, §7, §8

[18] = system: Escherichia coli 0-111; assay: Therapeutic effect on infectious disease in mice (Table G); type: in vivo; settings: Escherichia coli, 0111, sc, dihydrochloride, bacteria infected intraperitoneally, subcutaneous administration
[19] = system: Pseudomonas aeruginosa P-9; assay: as above; type: in vivo; settings: P9, sc, dihydrochloride, bacteria infected intraperitoneally, subcutaneous administration
[20] = Preliminary acute toxicities in mice (Table H); settings: mouse, in vivo, dihydrochloride
[21] = system: Escherichia coli T7; assay: Therapeutic effect on infectious disease in mice (Table G); type: in vivo; settings: T7, sc, dihydrochloride, bacteria infected intraperitoneally, subcutaneous administration
[22] = Solubility; type: physicochemical
[23] = pKa' value; type: physicochemical; settings: dihydrochloride
[24] = 308A1, sc, dihydrochloride, subcutaneous administration

SMILES: C/C=C/C=C/C(=O)NCC(O)CC(N)CC(=O)NCCC(=N)N (stereo not shown) [III]
ED50 [3, 24]: 12.5 mg/kg
MIC [4]: > 100 µg/mL
MIC [5]: > 100 µg/mL
MIC [6]: 12.5 µg/mL (≈ 38.4 µM)
MIC [7]: 50 µg/mL (≈ 154 µM)
MIC [8]: > 100 µg/mL
MIC [9]: > 100 µg/mL
MIC [10]: > 100 µg/mL
MIC [11]: 100 µg/mL (≈ 307 µM)
MIC [12]: > 100 µg/mL
MIC [13]: > 100 µg/mL
MIC [14]: 100 µg/mL (≈ 307 µM)
MIC [15]: > 100 µg/mL
MIC [16]: 100 µg/mL (≈ 307 µM)
MIC [17]: > 100 µg/mL
ED50 [18]: 50 mg/kg

SMILES: C/C=C\C=C\C(=O)NC(C)C(O)CC(N)CC(=O)NCCC(=N)N (stereo not shown) [II]
ED50 ([3]; 308A1, dihydrochloride, oral administration): 16.2 mg/kg
ED50 [3, 24]: 0.351 mg/kg
MIC [4]: 100 µg/mL (≈ 295 µM)
MIC [5]: 100 µg/mL (≈ 295 µM)
MIC [6]: 6.25 µg/mL (≈ 18.4 µM)
MIC [7]: 50 µg/mL (≈ 147 µM)
MIC [8]: 50 µg/mL (≈ 147 µM)
MIC [9]: ≥ 100 µg/mL
MIC [10]: 12.5 µg/mL (≈ 36.8 µM)
MIC [11]: 25 µg/mL (≈ 73.7 µM)
MIC [12]: > 100 µg/mL
MIC [13]: 12.5 µg/mL (≈ 36.8 µM)
MIC [14]: 6.25 µg/mL (≈ 18.4 µM)
MIC [15]: 3.13 µg/mL (≈ 9.22 µM)
MIC [16]: 50 µg/mL (≈ 147 µM)
MIC [17]: 3.13 µg/mL (≈ 9.22 µM)
ED50 [19]: 61.4 mg/kg
ED50 [18]: 27.3 mg/kg
LD50 ([20]; sc, subcutaneous): 400 to 800 mg/kg

SMILES: C/C=C/C=C/C(=O)NC(C)C(O)CC(N)CC(=O)NCCC(=N)N (stereo not shown) [IV]
ED50 [3, 24]: < 6.25 mg/kg
MIC [4]: > 100 µg/mL
MIC [5]: > 100 µg/mL
MIC [6]: 6.25 µg/mL (≈ 18.4 µM)
MIC [7]: 100 µg/mL (≈ 295 µM)
MIC [8]: > 100 µg/mL
MIC [9]: > 100 µg/mL
MIC [10]: 50 µg/mL (≈ 147 µM)
MIC [11]: 100 µg/mL (≈ 295 µM)
MIC [12]: > 100 µg/mL
MIC [13]: 50 µg/mL (≈ 147 µM)
MIC [14]: 25 µg/mL (≈ 73.7 µM)
MIC [15]: 25 µg/mL (≈ 73.7 µM)
MIC [16]: 100 µg/mL (≈ 295 µM)
MIC [17]: 25 µg/mL (≈ 73.7 µM)

SMILES: C/C=C\C=C\C(=O)NCC(O)CC(N)CC(=O)NCCC(=N)N (stereo not shown) [I]
ED50 [3, 24]: 1.31 mg/kg
MIC [4]: > 100 µg/mL
MIC [5]: > 100 µg/mL
MIC [6]: 3.13 µg/mL (≈ 9.62 µM)
MIC [8]: 25 µg/mL (≈ 76.8 µM)
MIC [9]: ≥ 100 µg/mL
MIC [10]: 50 µg/mL (≈ 154 µM)
MIC [11]: 100 µg/mL (≈ 307 µM)
MIC [12]: > 100 µg/mL
MIC [13]: 50 µg/mL (≈ 154 µM)
MIC [14]: 3.13 µg/mL (≈ 9.62 µM)
MIC [15]: 12.5 µg/mL (≈ 38.4 µM)
MIC [16]: 100 µg/mL (≈ 307 µM)
MIC [17]: 12.5 µg/mL (≈ 38.4 µM)
ED50 [18]: 67.2 mg/kg
LD50 ([20]; oral): 2000 to 4000 mg/kg
LD50 ([20]; sc, subcutaneous): ~500 mg/kg
ED50 [21]: 50.8 mg/kg

SMILES: CN(CC(=O)O)NC(=O)C[C@H](N)C[C@@H](O)CN [Negamycin, 2-(3R,5R)-3,6-diamino-5-hydroxyhexanoyl-1-methylhydrazinoacetic acid, reference compound]
MIC [1]: > 100 µg/mL

SMILES: C/C=C\C=C\C(=O)NCC(O)CC(N)CC(=O)NCCC(=N)N (stereo not shown) [TAN-749A dihydrochloride]
Solubility: Soluble ([22]; dihydrochloride): Water, Dimethyl sulfoxide, Methanol
Solubility: Sparingly soluble ([22]; dihydrochloride): Acetone, Ethyl acetate, Diethyl ether
pKa [23]: 8

SMILES: C/C=C\C=C\C(=O)NC(C)C(O)CC(N)CC(=O)NCCC(=N)N (stereo not shown) [TAN-749B dihydrochloride]
Solubility (by reference to TAN-749A dihydrochloride) [22]: Same with TAN-749A dihydrochloride
pKa [23]: 8.05

SMILES: C/C=C/C=C/C(=O)NCC(O)CC(N)CC(=O)NCCC(=N)N (stereo not shown) [TAN-749C dihydrochloride]
Solubility (by reference to TAN-749A dihydrochloride) [22]: Same with TAN-749A dihydrochloride

SMILES: C/C=C/C=C/C(=O)NC(C)C(O)CC(N)CC(=O)NCCC(=N)N (stereo not shown) [TAN-749D dihydrochloride]
Solubility (by reference to TAN-749A dihydrochloride) [22]: Same with TAN-749A dihydrochloride

SMILES: C/C=C\C=C\C(=O)NCC(O)CC(CC(=O)NCCC(=N)N)NC (stereo not shown) [compound 80]
MIC [1]: > 100 µg/mL

SMILES: C/C=C\C=C\C(=O)NCC(O)CC(CC(=O)NCCC(=N)N)NCC (stereo not shown) [compound 82]
MIC [1]: > 100 µg/mL
ED50 [2]: 25 mg/kg

Further lines, with some results ahead:

MIC [1]: 100 µg/mL (≈ 295 µM)
SMILES: CC=CC=C(C)C(=O)NCC(O)CC(N)CC(=O)NCCC(=N)N (stereo not shown) [44b]
ED50 [2]: 21.5 mg/kg

MIC [1]: > 100 µg/mL
SMILES: C/C=C\C=C(/C)C(=O)NC[C@H](O)C[C@@H](N)CC(=O)NCCC(=N)N [101b]
ED50 [2]: 7.02 mg/kg

MIC [1]: > 100 µg/mL
SMILES: C=C/C=C(\C)C(=O)NC[C@H](O)C[C@@H](N)CC(=O)NCCC(=N)N [112b]
ED50 [2]: 6.25 mg/kg

MIC [1]: > 100 µg/mL
SMILES: N=C(N)CCNC(=O)C[C@H](N)C[C@@H](O)CNC(=O)/C=C/C=C\Cl [120b]
ED50 [2]: 8.61 mg/kg

MIC [1]: > 100 µg/mL
SMILES: C/C=C\C=C\C(=O)NC[C@H](O)C[C@@H](N)CC(=O)NCC(C)C(=N)N (stereo partly shown) [124b]
ED50 [2]: 7.2 mg/kg

MIC [1]: > 100 µg/mL
SMILES: C/C=C\C=C\C(=O)NC[C@H](O)C[C@@H](N)CC(=O)NCCC(=N)NC [125b]
ED50 [2]: 19.2 mg/kg

MIC [1]: > 100 µg/mL
SMILES: C/C=C\C=C\C(=O)NC[C@H](O)C[C@H](CC(=O)NCCC(=N)N)NC(=O)CN [133b]
ED50 [2]: 8.41 mg/kg

MIC [1]: > 100 µg/mL
SMILES: C/C=C\C=C\C(=O)NC[C@H](O)C[C@H](CC(=O)NCCC(=N)N)NC(=O)C(N)CO (stereo partly shown) [134b]
ED50 [2]: 7.79 mg/kg

MIC [1]: > 100 µg/mL
SMILES: C/C=C\C=C\C(=O)NC[C@H](O)C[C@H](CC(=O)NCCC(=N)N)NC(=O)[C@H](C)N [136b]
ED50 [2]: 8.16 mg/kg
